Results as given in patent US12180193B2, “Accelerating fibrosarcoma protein degrading compounds and associated methods of use” (Arvinas Operations, Inc., priority 2020, dated 2024).

Experiments:
BRAF G466V = target: T1, BRAF G466V (Homo sapiens, UniProt P15056, G466V); test: Cellular assay of target protein degradation, T-Rex 293 cells stably transfected with HA-BRAF G466V (HA immunofluorescence, high content imaging); assay type: cell-based; conditions: T-Rex 293 HA-BRAF G466V; for DC50: half maximal degradation, read-out: BRaf G466V DC50; for Dmax: maximum degradation observed
T1 construct: expressed in transfected cells
T1 sequence (P15056 whole entry G466V): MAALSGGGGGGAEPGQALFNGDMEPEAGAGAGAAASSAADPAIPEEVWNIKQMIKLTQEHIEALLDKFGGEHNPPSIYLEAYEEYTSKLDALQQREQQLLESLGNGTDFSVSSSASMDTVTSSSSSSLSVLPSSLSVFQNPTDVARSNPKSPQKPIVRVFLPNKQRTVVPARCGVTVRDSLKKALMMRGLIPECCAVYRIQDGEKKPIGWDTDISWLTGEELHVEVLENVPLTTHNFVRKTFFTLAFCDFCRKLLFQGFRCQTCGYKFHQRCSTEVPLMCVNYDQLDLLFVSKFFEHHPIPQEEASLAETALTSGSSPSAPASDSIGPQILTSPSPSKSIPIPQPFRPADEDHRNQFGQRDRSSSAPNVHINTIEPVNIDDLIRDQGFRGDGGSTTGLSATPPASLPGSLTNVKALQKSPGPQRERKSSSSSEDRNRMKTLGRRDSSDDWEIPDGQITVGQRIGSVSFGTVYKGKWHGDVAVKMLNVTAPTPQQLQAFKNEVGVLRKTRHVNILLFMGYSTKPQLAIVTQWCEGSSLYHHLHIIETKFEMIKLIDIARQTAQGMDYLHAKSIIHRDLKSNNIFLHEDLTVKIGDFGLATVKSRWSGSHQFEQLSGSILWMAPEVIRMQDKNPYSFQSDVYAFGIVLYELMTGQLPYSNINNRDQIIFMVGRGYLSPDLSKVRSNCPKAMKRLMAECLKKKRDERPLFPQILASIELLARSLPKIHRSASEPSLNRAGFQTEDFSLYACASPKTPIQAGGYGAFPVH
Procedure, shortened: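 Read-out is HA immunofluorescence by high content imaging, with Hoechst and phalloidin co-staining, giving DC50 and Dmax as a percentage of control. Compound exposure lasts 24 hours at 37° C over 30 nM to 3 pM in 0.1% DMSO, with doxycycline-induced HA-BRAF G466V.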

BRAF V600E = target: T2, BRAF V600E (Homo sapiens, UniProt P15056, V600E); test: Cellular assay of target protein degradation, T-Rex 293 cells stably transfected with HA-BRAF_V600E (HA immunofluorescence, high content imaging); assay type: cell-based; conditions: T-Rex 293 HA-BRAF V600E; for DC50: half maximal degradation, read-out: BRaf V600E DC50; for Dmax: maximum degradation observed
T2 construct: expressed in transfected cells
T2 sequence (P15056 whole entry V600E): as the sequence (P15056 whole entry G466V) above, with V466G, V600E counted along it
Procedure, shortened: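 Cells are plated with 1 ng/mL doxycycline and grown 24 h. Compound is then added (final 1 μM–0.1 nM, 0.1% DMSO) for another 24 h at 37 °C, followed by fixing, HA immunostaining and imaging to obtain DC50 and Dmax.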

DC50 (BRAF G466V)	Dmax (BRAF G466V)	DC50 (BRAF V600E)	Dmax (BRAF V600E)	SMILES
1 to 10 nM	35 to 70%	50 to 500 nM	35 to 70%	COc1cc([C@@H](O)CCN2CCN(c3ccc(-c4cnc5[nH]cc(C(=O)c6c(F)ccc(NS(=O)(=O)N7CC[C@@H](F)C7)c6F)c5c4)cc3)CC2)cc2c1C(=O)N([C@@H]1CCC(=O)NC1=O)C2 [Compound 296, (3R)-N-{3-[5-(4-{4-[(3S)-3-{2-[(3R)-2,6-dioxopiperidin-3-yl]-7-methoxy-1-oxo-2,3-dihydro-1H-isoindol-5-yl}-3-hydroxypropyl]piperazin-1-yl}phenyl)-1H-pyrrolo[2,3-b]pyridine-3-carbonyl]-2,4-difluorophenyl}-3-fluoropyrrolidine-1-sulfonamide]
< 1 nM	> 70%	5 to 50 nM	35 to 70%	O=C1CCC(N2Cc3cc(C4CCN(C[C@H]5CCN(c6ccc(-c7cnc8[nH]cc(C(=O)c9c(F)ccc(NS(=O)(=O)N%10CC[C@@H](F)C%10)c9F)c8c7)cc6)C[C@H]5F)CC4)ccc3C2=O)C(=O)N1 (stereo partly drawn) [Compound 297, (3R)-N-[3-(5-{4-[(3S,4R)-4-({4-[2-(2,6-dioxopiperidin-3-yl)-1-oxo-2,3-dihydro-1H-isoindol-5-yl]piperidin-1-yl}methyl)-3-fluoropiperidin-1-yl]phenyl}-1H-pyrrolo[2,3-b]pyridine-3-carbonyl)-2,4-difluorophenyl]-3-fluoropyrrolidine-1-sulfonamide]
< 1 nM	35 to 70%	50 to 500 nM	< 35%	O=C1CCC(N2Cc3cc(N4CCC(CN5CCN(C6(c7ncc(-c8cnc9[nH]cc(C(=O)c%10c(F)ccc(NS(=O)(=O)N%11CC[C@@H](F)C%11)c%10F)c9c8)cn7)CC6)CC5)CC4)ccc3C2=O)C(=O)N1 (stereo partly drawn) [Compound 298, (3R)-N-{3-[5-(2-{1-[4-({1-[2-(2,6-dioxopiperidin-3-yl)-1-oxo-2,3-dihydro-1H-isoindol-5-yl]piperidin-4-yl}methyl)piperazin-1-yl]cyclopropyl}pyrimidin-5-yl)-1H-pyrrolo[2,3-b]pyridine-3-carbonyl]-2,4-difluorophenyl}-3-fluoropyrrolidine-1-sulfonamide]
1 to 10 nM	> 70%	5 to 50 nM	35 to 70%	O=C1CCC(N2Cc3cc([C@H](O)CN4CC5(C4)CN(c4ccc(-c6cnc7[nH]cc(C(=O)c8c(F)ccc(NS(=O)(=O)N9CC[C@@H](F)C9)c8F)c7c6)cc4)C5)ccc3C2=O)C(=O)N1 (stereo partly drawn) [Compound 299, (3R)-N-{3-[5-(4-{6-[(2S)-2-[2-(2,6-dioxopiperidin-3-yl)-1-oxo-2,3-dihydro-1H-isoindol-5-yl]-2-hydroxyethyl]-2,6-diazaspiro[3.3]heptan-2-yl}phenyl)-1H-pyrrolo[2,3-b]pyridine-3-carbonyl]-2,4-difluorophenyl}-3-fluoropyrrolidine-1-sulfonamide]
< 1 nM	> 70%	50 to 500 nM	35 to 70%	O=C1CC[C@@H](N2Cc3cc([C@@H](O)CCN4CCN(c5ccc(-c6cnc7[nH]cc(C(=O)c8c(F)ccc(NS(=O)(=O)N9CC[C@@H](F)C9)c8F)c7c6)cc5)CC4)c(F)cc3C2=O)C(=O)N1 [Compound 301, (3R)-N-{3-[5-(4-{4-[(3S)-3-{2-[(3R)-2,6-dioxopiperidin-3-yl]-6-fluoro-1-oxo-2,3-dihydro-1H-isoindol-5-yl}-3-hydroxypropyl]piperazin-1-yl}phenyl)-1H-pyrrolo[2,3-b]pyridine-3-carbonyl]-2,4-difluorophenyl}-3-fluoropyrrolidine-1 sulfonamide]
1 to 10 nM	35 to 70%	50 to 500 nM	35 to 70%	O=C1CCC(N2Cc3cc(N4CCC(CC5CN(c6ccc(-c7cnc8[nH]cc(C(=O)c9c(F)ccc(NS(=O)(=O)N%10CC[C@@H](F)C%10)c9F)c8c7)cc6)C5)CC4)ccc3C2=O)C(=O)N1 (stereo partly drawn) [Compound 302, (3R)-N-[3-(5-{4-[3-({1-[2-(2,6-dioxopiperidin-3-yl)-1-oxo-2,3-dihydro-1H-isoindol-5-yl]piperidin-4-yl}methyl)azetidin-1-yl]phenyl}-1H-pyrrolo[2,3-b]pyridine-3-carbonyl)-2,4-difluorophenyl]-3-fluoropyrrolidine-1-sulfonamide]
1 to 10 nM	35 to 70%	50 to 500 nM	35 to 70%	O=C1CCC(N2Cc3cc(N4CC(CN5CCC(C6(c7ccc(-c8cnc9[nH]cc(C(=O)c%10c(F)ccc(NS(=O)(=O)N%11CC[C@@H](F)C%11)c%10F)c9c8)cc7)CC6)CC5)C4)ccc3C2=O)C(=O)N1 (stereo partly drawn) [Compound 304, (3R)-N-{3-[5-(4-{1-[1-({1-[2-(2,6-dioxopiperidin-3-yl)-1-oxo-2,3-dihydro-1H-isoindol-5-yl]azetidin-3-yl}methyl)piperidin-4-yl]cyclopropyl}phenyl)-1H-pyrrolo[2,3-b]pyridine-3-carbonyl]-2,4-difluorophenyl}-3-fluoropyrrolidie-1-sulfonamide]
1 to 10 nM	35 to 70%	> 500 nM	> 70%	O=C1CCC(N2Cc3cc(N4CCC(CN5CC(Cc6ncc(-c7cnc8[nH]cc(C(=O)c9c(F)ccc(NS(=O)(=O)N%10CC[C@@H](F)C%10)c9F)c8c7)cn6)C5)CC4)ccc3C2=O)C(=O)N1 (stereo partly drawn) [Compound 307, (3R)-N-{3-[5-(2-{[1-({1-[2-(2,6-dioxopiperidin-3-yl)-1-oxo-2,3-dihydro-1H-isoindol-5-yl]piperidin-4-yl}methyl)azetdidin-3-yl]methyl}pyrimidin-5-yl)-1H-pyrrolo[2,3-b]pyridine-3-carbonyl]-2,4-difluorophenyl}-3-fluoropyrrolidine-1-sulfonamide]

More lines, now with the values behind:

SMILES	DC50 (BRAF G466V)	Dmax (BRAF G466V)	DC50 (BRAF V600E)	Dmax (BRAF V600E)
O=C1CC[C@H](N2Cc3cc([C@@H](O)CCN4CCN(c5ccc(-c6cnc7[nH]cc(C(=O)c8c(F)ccc(NS(=O)(=O)N9CC[C@@H](F)C9)c8F)c7c6)cc5)CC4)c(F)cc3C2=O)C(=O)N1 [Compound 300, (3R)-N-{3-[5-(4-{4-[(3S)-3-{2-[(3S)-2,6-dioxopiperidin-3-yl]-6-fluoro-1-oxo-2,3-dihydro-1H-isoindol-5-yl}-3-hydroxypropyl]piperazin-1-yl}phenyl)-1H-pyrrolo[2,3-b]pyridine-3-carbonyl]-2,4-difluorophenyl}-3-fluoropyrrolidine-1-sulfonamide]	< 1 nM	35 to 70%	50 to 500 nM	35 to 70%
O=C1CCC(N2Cc3cc(N4CC(CN5CCC(Cc6ccc(-c7cnc8[nH]cc(C(=O)c9c(F)ccc(NS(=O)(=O)N%10CC[C@@H](F)C%10)c9F)c8c7)cc6)CC5)C4)ccc3C2=O)C(=O)N1 (stereo partly drawn) [Compound 303, (3R)-N-{3-[5-(4-{[1-({1-[2-(2,6-dioxopiperidin-3-yl)-1-oxo-2,3-dihydro-1H-isoindol-5-yl]azetidin-3-yl}methyl)piperidin-4-yl]methyl}phenyl)-1H-pyrrolo[2,3-b]pyridine-3-carbonyl]-2,4-difluorophenyl}-3-fluoropyrrolidine-1-sulfonamide]	1 to 10 nM	> 70%	5 to 50 nM	35 to 70%
O=C1CCC(N2Cc3cc(N4CC(CC5CCN(c6ccc(-c7cnc8[nH]cc(C(=O)c9c(F)ccc(NS(=O)(=O)N%10CC[C@@H](F)C%10)c9F)c8c7)cc6)CC5)C4)ccc3C2=O)C(=O)N1 (stereo partly drawn) [Compound 306, (3R)-N-[3-(5-{4-[4-({1-[2-(2,6-dioxopiperidin-3-yl)-1-oxo-2,3-dihydro-1H-isoindol-5-yl]azetidin-3-yl}methyl)piperidin-1-yl]phenyl}-1H-pyrrolo[2,3-b]pyridine-3-carbonyl)-2,4-difluorophenyl]-3-fluoropyrrolidine-1-sulfonamide]	1 to 10 nM	35 to 70%	50 to 500 nM	35 to 70%
O=C1CCC(N2Cc3cc(N4CCC(CCC5CCN(c6ccc(-c7cnc8[nH]cc(C(=O)c9c(F)ccc(NS(=O)(=O)N%10CC[C@@H](F)C%10)c9F)c8c7)cc6)CC5)CC4)ccc3C2=O)C(=O)N1 (stereo partly drawn) [Compound 308, (3R)-N-[3-(5-{4-[4-(2-{1-[2-(2,6-dioxopiperidin-3-yl)-1-oxo-2,3-dihydro-1H-isoindol-5-yl]piperidin-4-yl}ethyl)piperidin-1-yl]phenyl}-1H-pyrrolo[2,3-b]pyridine-3-carbonyl)-2,4-difluorophenyl]-3-fluoropyrrolidine-1-sulfonamide]	> 30 nM		50 to 500 nM	< 35%
O=C1CCC(N2Cc3cc(N4CCC(CN5CC[C@@H]6CN(c7ccc(-c8cnc9[nH]cc(C(=O)c%10c(F)ccc(NS(=O)(=O)N%11CC[C@@H](F)C%11)c%10F)c9c8)cc7)C[C@@H]6C5)CC4)ccc3C2=O)C(=O)N1 (stereo partly shown) [Compound 309]	1 to 10 nM	> 70%	5 to 50 nM	35 to 70%
O=C1CCC(N2Cc3cc(CCCN4CC5(C4)CN(c4ccc(-c6cnc7[nH]cc(C(=O)c8c(F)ccc(NS(=O)(=O)N9CC[C@@H](F)C9)c8F)c7c6)cc4F)C5)ccc3C2=O)C(=O)N1 (stereo partly drawn) [Compound 310, (3R)-N-(3-{5-[4-(6-{3-[2-(2,6-dioxopiperidin-3-yl)-1-oxo-2,3-dihydro-1H-isoindol-5-yl]propyl}-2,6-diazaspiro[3.3]heptan-2-yl)-3-fluorophenyl]-1H-pyrrolo[2,3-b]pyridine-3-carbonyl}-2,4-difluorophenyl)-3-fluoropyrrolidine-1-sulfonamide]	1 to 10 nM	> 70%	5 to 50 nM	35 to 70%
